According to ChEMBL document CHEMBL5038668 (J Med Chem, 2022):

Key:
CYP3A4 = CYP3A4 (Homo sapiens, UniProt P08684); assay: Inhibition of human CYP3A4 at 10 uM incubated for 60 mins by LC/MS/MS analysis relative to control; type: ADME
[1] = target: Cholesterol 24-hydroxylase (Homo sapiens, UniProt Q9Y6A2); assay: biochemical
Description: Inhibition of CH24H expressing human 293-F cells for 15 minutes using [14C] cholesterol as substrate and measured after 5 hrs by trypan blue staining based thin-layer chromatography

[2] = Lipophilicity, log D of compound at pH 7.4; conditions: buffer
CYP2C8 = target: T1, CYP2C8 (Homo sapiens, UniProt P10632); assay: Inhibition of human CYP2C8 at 10 uM incubated for 60 mins by LC/MS/MS analysis relative to control; type: ADME
T1 sequence (P10632 whole entry): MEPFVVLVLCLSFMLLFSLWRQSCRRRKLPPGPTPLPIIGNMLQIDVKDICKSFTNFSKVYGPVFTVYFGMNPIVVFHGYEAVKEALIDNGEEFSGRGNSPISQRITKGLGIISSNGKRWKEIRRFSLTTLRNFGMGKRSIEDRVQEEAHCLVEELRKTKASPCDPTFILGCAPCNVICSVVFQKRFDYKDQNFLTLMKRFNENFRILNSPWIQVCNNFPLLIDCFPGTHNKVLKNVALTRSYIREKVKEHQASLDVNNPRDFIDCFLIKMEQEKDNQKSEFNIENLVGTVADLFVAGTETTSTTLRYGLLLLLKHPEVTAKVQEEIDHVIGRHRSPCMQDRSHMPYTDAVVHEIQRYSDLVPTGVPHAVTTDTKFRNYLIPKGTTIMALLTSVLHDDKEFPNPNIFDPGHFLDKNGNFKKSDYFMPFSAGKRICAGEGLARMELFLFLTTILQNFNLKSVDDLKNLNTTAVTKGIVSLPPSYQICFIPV

CYP2D6 = CYP2D6 (Homo sapiens, UniProt P10635); assay: Inhibition of human CYP2D6 at 10 uM incubated for 60 mins by LC/MS/MS analysis relative to control; type: ADME
Chain of CYP2D6 (P10635 whole entry): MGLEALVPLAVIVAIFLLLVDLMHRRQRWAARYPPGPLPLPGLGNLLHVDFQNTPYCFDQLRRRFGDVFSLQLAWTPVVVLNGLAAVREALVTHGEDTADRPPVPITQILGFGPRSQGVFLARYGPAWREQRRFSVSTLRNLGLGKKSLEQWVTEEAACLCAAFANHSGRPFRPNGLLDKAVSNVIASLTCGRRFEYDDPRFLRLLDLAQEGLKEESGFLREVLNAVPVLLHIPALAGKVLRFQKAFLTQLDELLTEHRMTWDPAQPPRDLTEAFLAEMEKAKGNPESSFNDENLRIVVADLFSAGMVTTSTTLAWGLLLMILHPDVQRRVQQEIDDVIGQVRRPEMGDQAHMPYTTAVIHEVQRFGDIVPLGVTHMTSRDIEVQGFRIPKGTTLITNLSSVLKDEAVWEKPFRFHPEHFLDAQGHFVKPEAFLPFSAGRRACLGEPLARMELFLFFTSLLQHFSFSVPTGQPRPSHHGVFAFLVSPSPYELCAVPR

[3] = Drug concentration in brain of C57BL/6N mouse at 30 mg/kg,po and measured at 1 hrs by LC/MS/MS analysis; type: ADME, organism-based; conditions: read-out: Ct
[4] = Plasma concentration in C57BL/6N mouse at 30 mg/kg, po and measured at 1 hr by LC/MS/MS analysis; type: ADME, organism-based
CYP2C9 = CYP2C9 (Homo sapiens, UniProt P11712); assay: Inhibition of human CYP2C9 at 10 uM incubated for 60 mins by LC/MS/MS analysis relative to control; type: ADME
Chain of CYP2C9 (P11712 whole entry): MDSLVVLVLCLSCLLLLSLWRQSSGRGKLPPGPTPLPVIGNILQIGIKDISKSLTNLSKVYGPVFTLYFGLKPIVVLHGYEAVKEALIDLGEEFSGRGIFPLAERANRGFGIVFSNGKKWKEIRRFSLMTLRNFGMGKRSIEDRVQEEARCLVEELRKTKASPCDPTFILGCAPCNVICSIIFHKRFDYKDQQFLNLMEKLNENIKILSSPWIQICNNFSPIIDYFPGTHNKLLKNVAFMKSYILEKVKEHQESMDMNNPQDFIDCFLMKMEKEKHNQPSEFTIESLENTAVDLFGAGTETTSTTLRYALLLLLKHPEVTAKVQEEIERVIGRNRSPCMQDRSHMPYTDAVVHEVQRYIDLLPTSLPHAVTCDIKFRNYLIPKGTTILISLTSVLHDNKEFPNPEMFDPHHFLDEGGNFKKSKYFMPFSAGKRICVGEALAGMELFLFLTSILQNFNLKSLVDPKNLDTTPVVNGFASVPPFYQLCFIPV

Brain = assay: In vivo inhibition of […] CH24H in C57BL/6N mouse brain assessed as reduction in 24HC level at 30 mg/kg, po for 3 days by HPLC analysis; type: functional; conditions: 72 h, time 3 day

Chain of CYP3A4 (P08684 whole entry): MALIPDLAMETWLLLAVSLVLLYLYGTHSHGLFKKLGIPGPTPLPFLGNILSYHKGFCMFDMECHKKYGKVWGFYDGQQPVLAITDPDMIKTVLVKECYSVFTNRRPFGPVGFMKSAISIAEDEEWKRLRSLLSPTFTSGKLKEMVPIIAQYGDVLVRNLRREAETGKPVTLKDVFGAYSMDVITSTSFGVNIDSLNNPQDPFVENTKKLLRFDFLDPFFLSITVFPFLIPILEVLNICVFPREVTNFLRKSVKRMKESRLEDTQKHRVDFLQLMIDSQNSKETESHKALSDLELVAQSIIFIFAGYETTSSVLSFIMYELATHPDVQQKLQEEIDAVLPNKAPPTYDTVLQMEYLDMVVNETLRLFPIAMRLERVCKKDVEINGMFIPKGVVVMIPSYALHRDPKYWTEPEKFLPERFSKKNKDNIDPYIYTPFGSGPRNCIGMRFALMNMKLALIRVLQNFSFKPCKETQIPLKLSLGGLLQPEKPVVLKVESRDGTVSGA
Chain of Cholesterol 24-hydroxylase (Q9Y6A2 whole entry): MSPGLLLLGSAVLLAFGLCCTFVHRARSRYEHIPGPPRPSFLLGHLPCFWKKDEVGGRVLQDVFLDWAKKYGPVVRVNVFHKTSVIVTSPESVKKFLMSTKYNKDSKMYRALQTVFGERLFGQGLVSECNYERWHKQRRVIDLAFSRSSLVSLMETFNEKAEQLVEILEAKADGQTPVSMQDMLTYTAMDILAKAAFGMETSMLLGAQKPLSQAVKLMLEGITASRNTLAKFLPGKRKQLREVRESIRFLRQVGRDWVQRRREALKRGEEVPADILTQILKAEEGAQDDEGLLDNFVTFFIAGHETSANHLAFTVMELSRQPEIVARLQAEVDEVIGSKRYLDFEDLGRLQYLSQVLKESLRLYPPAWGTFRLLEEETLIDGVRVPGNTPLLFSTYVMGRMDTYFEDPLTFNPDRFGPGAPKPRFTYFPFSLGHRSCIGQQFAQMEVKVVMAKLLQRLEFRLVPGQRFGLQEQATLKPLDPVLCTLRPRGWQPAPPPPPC

inhibition at 1 h, 10 µM (CYP3A4) [%] | IC50 [1] [µM] | logD [2] | SMILES | further results
31 | 0.0095 | 2.1 | CN(C)C(=O)C1CCN(c2cnccc2-n2cc(Br)cn2)CC1 | 
21 | 0.0085 | 1.6 | Cc1cnn(-c2ccncc2N2CCC(C(=O)N(C)C)CC2)c1 | inhibition at 1 h, 10 µM (CYP2C8): 2%; inhibition at 1 h, 10 µM (CYP2D6): 3%; concentration at 1 h [3]: 0.102 µM; concentration at 1 h [4]: 179 µM; inhibition at 1 h, 10 µM (CYP2C9): 19%; inhibition in vivo at 30 mg/kg (Brain): 26%
56 | 0.012 | 2.1 | CN(C)C(=O)C1CCN(c2cnccc2-n2cc(C3CC3)cn2)CC1 | 
 | 0.052 |  | O=C(NC1CC1)N1CCN(c2cnccc2-c2ccccc2)CC1 | 
50 | 0.044 | 1.8 | O=C(NC1CC1)C1CCN(c2cncnc2-c2ccccc2)CC1 | 
19 | 0.024 |  | CN(C)C(=O)C1CCN(c2cnccc2-n2cc(Cl)cn2)CC1 | 
83 | 0.0081 | 2.5 | O=C(NC1CC1)C1CCN(c2cnccc2-c2ccccc2)CC1 | 
 | 0.074 |  | O=C(NC1CC1)c1ccc(-c2cnccc2-c2ccccc2)cc1 | 
 | 0.95 |  | O=C(NC1CC1)N1CCC(c2cnccc2-c2ccccc2)CC1 | 
35 | 0.014 | 2.1 | CCN(C)C(=O)C1CCN(c2cncnc2-c2ccccc2)CC1 | 
5 | 1.1 | 1.5 | Cc1ccn(-c2ccncc2N2CCC(C(=O)N(C)C)CC2)n1 | 
11 | 0.068 | 1.2 | CN(C)C(=O)C1CCN(c2cnccc2-c2ccccn2)CC1 | 
47 | 0.065 | 2.1 | CN(C)C(=O)C1CCN(c2cnccc2-n2cc(C(F)(F)F)cn2)CC1 | 
28 | 0.016 | 1.7 | CN(C)C(=O)C1CCN(c2cncnc2-c2ccccc2)CC1 | 
1 | 0.048 | 1.1 | CN(C)C(=O)C1CCN(c2cnccc2-n2cccn2)CC1 | 
32 | 0.012 | 2 | Cc1cnc(-c2ccncc2N2CCC(C(=O)N(C)C)CC2)s1 | 
31 | 0.072 | 1.4 | CNC(=O)C1CCN(c2cncnc2-c2ccccc2)CC1 | 
29 | 0.16 | 1.3 | O=C(NC1CC1)C1CCN(c2cnccc2-c2ccccn2)CC1 | 
84 | 0.028 | 2.7 | O=C(Nc1ccccc1)C1CCN(c2cncnc2-c2ccccc2)CC1 | 
37 | 0.0073 | 1.9 | CN(C)C(=O)C1CCN(c2cncnc2-c2ccc(F)cc2)CC1 | 
42 | 0.058 | 1.8 | CCNC(=O)C1CCN(c2cncnc2-c2ccccc2)CC1 | 

SMILES | inhibition at 1 h, 10 µM (CYP3A4) [%] | IC50 [1] [µM] | logD [2] | further results
S=C(NC1CCCCC1)N1CCC(c2cnc[nH]2)CC1 [THIOPERAMIDE] |  | 0.43 |  | 
